Data on five compounds can be found in patent US7326730B2, “Aminoadamantane derivatives as therapeutic agents” (Adamas Pharmaceuticals, Inc., priority 2000, dated 2008).

Series [1] relates to cerebrocortical neurons. Put plainly: In vitro model of mild NMDA-induced damage leading to apoptosis of cerebrocortical neurons. The class given is cell-based. As for the experimental part:
Cerebrocortical cultures were exposed to 300 μM NMDA for 20 min with or without various concentrations of compound 7. The next day cultures were analyzed by neuronal apoptosis as described in Example 19.
Under these conditions (300 μM NMDA exposure for 20 min, followed by washout), neuronal apoptosis was monitored 24 hours later by propidium iodide uptake and morphology of fixed, permeabilized neurons, among other techniques (Bonfoco et al., Proc Natl Acad Sci USA (1995) 92: 7162). NMDA induced about 20% apoptosis of neurons, and that 25-100 μM compound 7 afforded protection from this damage (P<0.001, FIG. 5).

The subject of series [2] is precontracted aortic vessel. Put plainly: Relaxation of norepinephrine-precontracted, endothelium-denuded thoracic aorta rings. Also noted: species or system rabbits. Particulars: for effect on precontracted blood vessel: compared to solvent (EtOH) alone. As for the experimental part:
New Zealand white female rabbits weighing 3-4 kilograms were anesthetized with sodium pentobarbital, 13 milligram per kilogram. Descending thoracic aorta were isolated, the vessels were cleaned of adherent tissue and the endothelium was removed by a gentle rubbing with a cotton-tipped applicator inserted into the lumen. The vessels were cut into 5 millimeter rings and mounted on stirrups connected to transducers by which changes in isometric tension were recorded (model TO3C, Grass Instruments, Quincy, Mass.). Vessel rings were suspended in 20 mL of oxygenated Krebs buffer at 37° C. and sustained contractions were induced with 1 μM norepinephrine. The vessels were then relaxed in a dose-dependent fashion (10^−9 through 10^−5 M compound 8). In some experiments vessels were pretreated with methylene blue or hemoglobin to block relaxations.
Relaxations were attenuated by methylene blue (c) and hemoglobin (d) indicating an NO-related effect. (b) is a control with solvent.

In series [3] the test system is C57B1/6 mice. Put plainly: Murine cerebral ischemia model (intraluminal suture, 2 hr MCA occlusion, TTC staining). The class given is in vivo. The note with it: loading dose 100 mg/kg i.p., maintenance 40 mg/kg i.p. every 12 hr, first dose 2 hr after MCA occlusion; TTC staining at 48 hr; P<0.03 from control, P<0.05 from memantine; hydrochloride. The procedure: The intraluminal suture technique was used to produce a 2 hr occlusion of the middle cerebral artery (MCA), following the same protocol for focal cerebral ischemia/reperfusion as published previously (Chen, et al., Neuroscience (1998) 86: 1121). However, here C57B1/6 mice were used instead of rats. […] To produce a neuroprotective concentration of compound 7, the loading dose was 100 mg/kg i.p. and the maintenance dose was 40 mg/kg i.p. every 12 hr. In each case, drug or vehicle control was initially administered 2 hr after MCA occlusion. […] The animals were sacrificed and analyzed with TTC staining 48 hr after MCA occlusion (Chen, et al., Neuroscience (1998) 86: 1121).

The conditions of series [4]: loading dose 20 mg/kg i.p., maintenance dose 1 mg/kg/12 hours; previously shown (Chen et al. 1998); cited from earlier work.
[5] abbreviates: rabbit aortic rings precontracted with 1 μM norepinephrine, 10^−9 through 10^−5 M tested.

“Also recorded” adds a separate entry of the source.

As for `CC12CC3(C)CC(N)(C1)CC(O[N+](=O)[O-])(C2)C3.Cl` [compound 7, 1-amino-3,5-dimethyl-7-nitrateadamantane hydrochloride], the “concentration affording protection from NMDA-induced neuronal apoptosis” value in series [1] (300 μM NMDA for 20 min, washout, apoptosis monitored 24 hours later by propidium iodide uptake and morphology, NMDA induced about 20% apoptosis, P<0.001) lay within 25 to 100 µM. The “inhibition of NMDA induced apoptosis in cerebrocortical neurons” value in series [1] (300 μM NMDA for 20 min with various concentrations of compound, dose-dependent, P<0.001, n=3 cultures) is reported as “largely prevented”. In series [2] (FIG. 8, 10 microM concentration), the “effect on precontracted blood vessel at 10 microM” value was “modest relaxation”. In addition, the “cerebral damage after stroke (neuroprotection)” value in series [3] was “more neuroprotective than memantine; also recorded: effective in decreasing cerebral damage after stroke”.
`CC(=O)NC12CC3(C)CC(C)(C1)CC(O[N+](=O)[O-])(C3)C2` [compound 8, 1-acetamido-3,5-dimethyl-7-nitrateadamantane]: in series [2] (setting [5]), the “concentration at which complete relaxation was achieved” value is 10^−6 M and the “concentration at which relaxations were seen” value is reported as 10^−8 M. In addition, the “relaxations after pretreatment with hemoglobin” value in series [2] (vessels pretreated with hemoglobin) is recorded as “attenuated”. Moreover, in series [2] (vessels pretreated with methylene blue), the “relaxations after pretreatment with methylene blue” value is on record as “attenuated”.
Consider `CC12CC3(C)CC(N)(C1)CC(O)(C2)C3.Cl` [compound 9, 1-amino-3,5-dimethyl-7-hydroxyadamantane hydrochloride], for which the “effect on precontracted blood vessel” value in series [2] (FIG. 8, hydrochloride) was “either no effect or slight contractions of blood vessels; also recorded: either no effect or slight blood vessel contractions”.
`CC12CC3(C)CC(O)(C1)CC(N(Cc1ccccc1)Cc1ccccc1)(C2)C3` [compound 10, 1,1-dibenzylamino-3,5-dimethyl-7-hydroxy-adamantane]: the “effect on precontracted blood vessel” value in series [2] (FIG. 8) is listed as “either no effect or slight contractions of blood vessels; also recorded: either no effect or slight blood vessel contractions”.
As for `CC12CC3CC(C)(C1)CC(N)(C3)C2` [memantine], the “parenchymal levels in the brain” value in series [4] was 1 to 10 µM.
